The source of these data is paper PMC4357465, “Tool Compounds Robustly Increase Turnover of an Artificial Substrate by Glucocerebrosidase in Human Brain Lysates” (PLoS ONE, 2015).

Where two headings read alike, the source gives them in different places.

Common to all, as to type: biochemical
In one test the target is T1, purified human GBA1 (Homo sapiens, UniProt P04062).
T1 construct: purchased R&D Systems 7410-GH-10; host or cells: alternatively made in house: baculovirus (pFastBac-1), expressed in SF-9 or SF-21 cells, purified from conditioned media
T1 sequence (P04062 40-536): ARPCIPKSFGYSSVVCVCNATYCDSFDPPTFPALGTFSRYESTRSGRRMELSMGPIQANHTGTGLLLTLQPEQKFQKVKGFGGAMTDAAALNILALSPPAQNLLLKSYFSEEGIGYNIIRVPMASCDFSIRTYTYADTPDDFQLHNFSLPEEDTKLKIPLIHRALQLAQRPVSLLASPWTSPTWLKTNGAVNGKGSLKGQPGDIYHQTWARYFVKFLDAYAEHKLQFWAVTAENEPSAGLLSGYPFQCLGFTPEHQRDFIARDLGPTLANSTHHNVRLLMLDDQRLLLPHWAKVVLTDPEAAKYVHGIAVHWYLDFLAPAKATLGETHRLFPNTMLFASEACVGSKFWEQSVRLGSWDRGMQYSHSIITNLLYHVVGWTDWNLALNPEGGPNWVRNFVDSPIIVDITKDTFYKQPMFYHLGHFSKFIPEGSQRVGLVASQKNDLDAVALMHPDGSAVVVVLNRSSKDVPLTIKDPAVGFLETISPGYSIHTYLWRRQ
As to the kind of experiment: GBA1 enzymatic cell-free assay, turnover of 4MUG. The method, then:
After incubation, 100 μl of assay buffer was added to the plate. The assay buffer was composed of 0.1 M citric acid and 0.2 M sodium phosphate dibasic adjusted to pH = 5.4 unless stated otherwise (McIlvaine Buffer). […] For IC50 and EC50 experiments using compounds an assay buffer of pH 5.4 was used.
The substrate, 4-methylumbelliferyl β-D-glucopyranoside (4MUG, Sigma, M3633) was then added to the plate to a final concentration of 1.7 mM (25 μl). 4MUG was freshly solubilized in water at 37°C prior to each experiment. The recombinant protein, compound, assay buffer, and substrate were incubated at 37°C for 30 minutes.
The specific activity was calculated off the 4MU standard curve by converting the relative fluorescence units (RFUs) to the concentration of the fluorescent product (GraphPad Prism 5.1). This interpolated value was then used to calculate the specific activity of the recombinant protein which was expressed as nmol/hr/ng protein for recombinant protein and nmol/hr/mg for tissue lysates (GBA1 tissue assay). The standard curve was always diluted in the same assay buffer as the samples, including the same pH. For experiments testing activity of GBA1 at different pH, a standard curve for each pH condition was used to calculate specific activity. When testing different pH conditions, buffer solutions were adjusted to obtain the desired pH using the McIlvaine’s Buffer recipe, and the pH of the buffer was verified. All assay buffers used in the pH experiments contained sodium taurocholate to a final concentration of 3.1 mM.
In experiments directly comparing enzymatic activities of GBA1, GBA2 and GBA3 (S1 Fig., S2 Fig. c, d) the following conditions were used. […] A 10-fold intermediate solution of compound serial dilution was prepared in an assay buffer; half log dilutions were used. […] 2 mM solution of 4MUG was prepared in an assay buffer. To start the reaction, 4.5 μl/well of this solution was added to the enzyme plate and was incubated for 30 minutes at 37°C. To stop the reaction, a 1M glycine solution, adjusted to pH = 10 using 1M NaOH was used. […] To test the effect of sodium taurocholate (Sigma, T4009), the assay was performed using the same procedure described in this paragraph. The assay buffer contained either 0mM (same as above), 3 mM, 7 mM or 20 mM Sodium Taurocholate.

Test [1] concerns the target T2, GBA1 in mouse brain lysates (Mus musculus, UniProt P17439).
T2 construct: Mouse brain was obtained from 4–7 month old C57BL/6J mice; from tissue; host or cells: brain of C57BL/6J mice
T2 sequence (P17439 20-515): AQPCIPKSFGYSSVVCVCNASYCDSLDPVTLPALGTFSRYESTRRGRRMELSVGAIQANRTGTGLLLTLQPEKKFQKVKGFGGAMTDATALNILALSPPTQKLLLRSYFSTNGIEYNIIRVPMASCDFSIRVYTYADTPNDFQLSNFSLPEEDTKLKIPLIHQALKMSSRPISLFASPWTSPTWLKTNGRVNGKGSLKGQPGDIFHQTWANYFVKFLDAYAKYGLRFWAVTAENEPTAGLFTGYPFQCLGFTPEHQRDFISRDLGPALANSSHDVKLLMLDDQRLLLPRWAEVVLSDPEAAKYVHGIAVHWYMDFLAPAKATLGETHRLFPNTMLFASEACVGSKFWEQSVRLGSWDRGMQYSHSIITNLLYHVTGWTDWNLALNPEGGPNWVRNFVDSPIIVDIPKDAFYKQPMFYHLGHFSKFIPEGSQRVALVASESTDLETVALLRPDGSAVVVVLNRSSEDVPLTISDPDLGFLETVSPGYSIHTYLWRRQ
As to the kind of experiment: GBA1 tissue assay, 4MUG turnover in mouse brain lysates. Particulars: mouse brain lysate 10 μg, with sodium taurocholate. The method, then:
(§1) Human cortex was acquired from brain banks (Tissue Solutions: http://www.tissue-solutions.com; Proteogenex: http://www.proteogenex.com). Human cortex samples were obtained from deceased aged Caucasian subjects without any diagnosis of neurodegenerative disorders. Mouse brain was obtained from 4–7 month old C57BL/6J mice. All mouse experiments were performed in accordance with the specifications of both the National Institutes of Health Guide for the Care and Use of Laboratory Animals, studies were approved by Pfizer’s Internal Animal Care and Use Committee (IACUC). […] Samples were then centrifuged at 20,000g for 15 minutes at 4°C. Supernatant was collected, and used for activity assays and Western blots. Protein concentration was determined using the Pierce BCA protein assay kit. Tissue lysates and pellets were stored at -80°C until use. For enzymatic activity assays, lysates were subjected only to one free-thaw cycle. Independent replicates were obtained using brain lysates from either different human subjects or different mice. […] Brain tissue lysates were diluted to 0.4 μg/ μl of protein in the same homogenization buffer, as described above. 25 μl of diluted lysate was added to the plate (Costar, 7200567). Lysates were then incubated on ice in the presence or absence of a compound for 30 minutes. 100 μl of assay buffer was then added to the plate. The same assay buffer was used as in the cell free/recombinant experiments and processed as described above.

Test [2] deals with GBA1 in mouse brain lysates. Described as above. Particulars: mouse brain lysate 10 μg, without sodium taurocholate. The method, then:
as §1

Take `O[C@H]1[C@H](O)[C@@H](O)[C@@H]2O[C@@H]2[C@@H]1O` [CBE]: at purified human GBA1 (1 mM), the “inhibition of GBA1 activity” value was “more than 90%”. For the same compound, in test [1] (1mM), the “% inhibition: + NaTc” value is listed as 82% ± 1%. Moreover, in test [2] (1mM), the “% inhibition: - NaTc” value is listed as 32% ± 4%.
Consider `OC[C@H]1CNC[C@@H](O)[C@@H]1O` [Isofagomine, isofagomine], for which the inhibition (in general, the percentage by which the read-out fell short of the control) at 1 µM at purified human GBA1 (read-out: inhibition of GBA1 activity) is over 90%; on purified human GBA1 (with sodium taurocholate, read-out: GBA1 % inhibition + NaTc), 95.9 ± 3.2%; at purified human GBA1 (without sodium taurocholate, read-out: GBA1 % inhibition - NaTc), 92.1 ± 2.3%; in test [1] (1 μM, read-out: % inhibition: + NaTc) it was 82%. Moreover, in test [2] (1 μM), the “% inhibition: - NaTc” value was 21% ± 3%.
